Patent publication US7713994B2 (Wyeth LLC, priority 2005, dated 2010)
Read-outs that look alike come from different tables or passages of the source.

Tests used:
[1] = system: LoVo; assay: Cytotoxicity assay (SRB), LoVo; assay type: cell-based; details: Homo sapiens, LoVo, 72 h, LoVo cells, SRB, read-out: In Vitro Cellular Activity IC50 LOVO
Outline: (§1)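 Plate cells, let them attach overnight, add compound dilutions in RPMI 1640/5% FBS, and incubate 3 days (BT474 6 days). Then fix with TCA, stain with SRB, dissolve the dye in Tris and read at 540 nm.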

[2] = biological target: T1, cyclin B/CDK1 enzyme (Homo sapiens, UniProt P06493); assay: CDK1 ELISA kinase assay (phospho-Rb ser 795 detection); assay type: biochemical; details: In Vitro Enzyme Assays, read-out: CDK1 IC50
T1 construct: purchased New England BioLabs; host or cells: Sf9 insect cells, recombinant baculovirus
Outline: (§2)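 Wells were coated overnight with GST-Rb C-terminal fragment, then blocked. Compound (10 ug/ml final) and cyclin/CDK enzyme from baculovirus-infected Sf9 cells with 200 μM ATP reacted 1 h at 30° C. Ser795 phosphorylation was detected by ELISA at 450 nm.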

[3] = system: MCF-7; assay: Cytotoxicity assay (SRB), MCF-7; assay type: cell-based; details: Homo sapiens, MCF7, 72 h, MCF-7 cells, SRB, read-out: In Vitro Cellular Activity IC50 MCF-7
Outline: as §1

[4] = biological target: T2, cyclin D1/cdk 4 enzyme (Homo sapiens, UniProt P11802); assay: CDK4 ELISA kinase assay (phospho-Rb ser 795 detection); assay type: biochemical; details: In Vitro Enzyme Assays, 200 μM ATP, read-out: CDK4 IC50
T2 construct: made in house; host or cells: Sf9 insect cells, recombinant baculovirus
Outline: as §2

[5] = system: HCT-116; assay: Cytotoxicity assay (SRB), HCT-116; assay type: cell-based; details: Homo sapiens, HCT-116, 72 h, HCT116 cells, SRB, read-out: In Vitro Cellular Activity IC50 HCT116
Outline: as §1

[6] = system: BT474; assay: Cytotoxicity assay (SRB), BT474; assay type: cell-based
Outline: as §1

[7] = Homo sapiens, BT-474, 144 h, BT474 cells, SRB, 6 days; read-out: In Vitro Cellular Activity IC50 BT474
[8] = Homo sapiens, BT-474, 144 h, BT474 cells, 6 days, SRB; read-out: In Vitro Cellular Activity IC50 BT474

T2 sequence (P11802 whole entry, species assumed): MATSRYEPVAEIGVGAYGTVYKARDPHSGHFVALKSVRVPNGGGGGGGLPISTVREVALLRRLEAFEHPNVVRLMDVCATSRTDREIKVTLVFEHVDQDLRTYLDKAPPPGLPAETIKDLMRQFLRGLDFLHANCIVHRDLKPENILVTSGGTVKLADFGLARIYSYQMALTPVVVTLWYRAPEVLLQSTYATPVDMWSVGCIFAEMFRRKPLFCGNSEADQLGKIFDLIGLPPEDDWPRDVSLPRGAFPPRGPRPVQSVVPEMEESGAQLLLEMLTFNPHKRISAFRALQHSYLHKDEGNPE
T2 sequence (P24385 whole entry partner, species assumed): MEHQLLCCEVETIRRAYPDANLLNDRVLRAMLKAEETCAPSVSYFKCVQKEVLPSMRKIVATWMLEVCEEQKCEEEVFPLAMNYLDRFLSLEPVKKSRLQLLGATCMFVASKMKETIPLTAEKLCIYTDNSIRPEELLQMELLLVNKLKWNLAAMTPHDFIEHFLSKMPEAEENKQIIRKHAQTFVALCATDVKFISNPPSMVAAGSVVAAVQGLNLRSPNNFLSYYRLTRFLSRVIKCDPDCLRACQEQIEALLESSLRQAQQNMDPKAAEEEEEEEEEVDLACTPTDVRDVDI
T1 sequence (P06493 whole entry): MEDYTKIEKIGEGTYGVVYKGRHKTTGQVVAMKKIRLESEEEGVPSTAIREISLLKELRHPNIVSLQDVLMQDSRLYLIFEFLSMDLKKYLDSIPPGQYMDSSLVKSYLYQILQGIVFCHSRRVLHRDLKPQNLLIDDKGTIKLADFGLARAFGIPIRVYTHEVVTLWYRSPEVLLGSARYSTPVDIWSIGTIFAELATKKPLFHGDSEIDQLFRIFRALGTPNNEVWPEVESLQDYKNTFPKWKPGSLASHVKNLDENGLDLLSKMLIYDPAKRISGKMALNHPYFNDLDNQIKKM
T1 sequence (P14635 whole entry partner): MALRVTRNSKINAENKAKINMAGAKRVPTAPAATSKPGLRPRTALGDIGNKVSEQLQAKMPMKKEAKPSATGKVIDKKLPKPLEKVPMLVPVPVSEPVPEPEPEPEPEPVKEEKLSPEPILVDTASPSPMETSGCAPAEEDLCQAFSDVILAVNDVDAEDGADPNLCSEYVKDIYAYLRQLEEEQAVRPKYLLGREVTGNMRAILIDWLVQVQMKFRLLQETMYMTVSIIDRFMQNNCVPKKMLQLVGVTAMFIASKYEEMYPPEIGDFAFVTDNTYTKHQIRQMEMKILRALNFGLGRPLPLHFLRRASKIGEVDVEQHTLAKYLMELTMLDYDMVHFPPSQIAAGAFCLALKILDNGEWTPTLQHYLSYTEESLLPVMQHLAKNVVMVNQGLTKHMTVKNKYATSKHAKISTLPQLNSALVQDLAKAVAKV

Compound | IC50 ([1]; three days) | melting point | IC50 [2] | IC50 ([3]; three days) | IC50 [4] | IC50 ([5]; three days) | IC50 [6, 7] | IC50 ([1]; 3 days) | IC50 ([3]; 3 days) | IC50 [6, 8] | IC50 ([5]; 3 days)
CC(=O)Oc1ccc(CN/C=C2\C(=O)NC(=O)c3ccccc32)cc1OC(C)=O [Example 47, 2-(Acetyloxy)-4-({[(Z)-(1,3-dioxo-2,3-dihydroisoquinolin-4(1H)-ylidene)methyl]amino}-methyl)phenyl acetate] | 22 µM | 184 to 186 °C | > 50 µM | 20 µM | 1.1 µM | 21 µM |  |  |  |  | 
O=C1NC(=O)c2ccccc2/C1=C/NCc1ccc(O)cc1 [Example 61] | > 50 µM | 272 to 273 °C | 37.2 µM | > 50 µM | > 50 µM | 27.6 µM | > 50 µM |  |  |  | 
O=C1NC(=O)c2ccccc2/C1=C/NCc1cccc(O)c1 [Example 63] | > 50 µM | 261 to 262 °C | > 50 µM | > 50 µM | 0.78 µM | > 50 µM | 49 µM |  |  |  | 
CN(C)C(=O)c1ccc2c(c1)/C(=C/Nc1ccc(CN3CCCCC3)cc1)C(=O)NC2=O [Example 66, (4Z)-N,N-Dimethyl-1,3-dioxo-4-({[4-(piperidinylmethyl)phenyl]amino}methylene)-1,2,3,4-tetrahydroisoquinoline-6-carboxamide] | 4.2 µM | 266 to 267 °C (dec.) | > 50 µM | 4.3 µM | 21.2 µM | 3.4 µM | 3.1 µM |  |  |  | 
COc1ccc(CN/C=C2\C(=O)NC(=O)c3ccc(F)cc32)cc1O [Example 68] | 19 µM | 200 to 201 °C | > 50 µM | > 50 µM | 0.17 µM | 15 µM | 14 µM |  |  |  | 
O=C1NC(=O)c2ccc(-c3ccoc3)cc2/C1=C/Nc1ccc(CN2CCCCC2)cc1 [Example 93] | 1.8 µM | 204 to 205 °C | > 50 µM |  | 0.037 µM |  | 1 µM |  |  |  | 
O=C1NC(=O)c2ccc(-c3ccccc3)cc2/C1=C/Nc1ccc(CN2CCCCC2)cc1 [Example 95] | 3.7 µM | 214 to 215 °C | > 50 µM |  |  |  | 3 µM |  |  |  | 
O=C1NC(=O)c2ccc(-c3ccc(O)cc3)cc2/C1=C/Nc1ccc(CN2CCCCC2)cc1 [Example 103] | 2.3 µM | 244 to 245 °C | > 50 µM |  | 0.041 µM |  | 3.7 µM |  |  |  | 
COc1cc2c(cc1Br)/C(=C/Nc1ccc(N3CCN(C)CC3)cc1)C(=O)NC2=O [Example 242, 6-Bromo-7-methoxy-4-{[4-(4-methyl-piperazin-1-yl)-phenylamino]-methylene}-4H-isoquinoline-1,3-dione] | 4.5 µM | 274 to 276 °C |  | 5.2 µM |  | 2.1 µM | 3.2 µM |  |  |  | 
O=C1NC(=O)c2ccc(I)cc2/C1=C/Nc1ccc(OCc2ccccn2)cc1 [Example 247] | > 50 µM | 265 to 266 °C |  | > 50 µM |  | 18 µM | 35 µM |  |  |  | 
CN1CCN(c2ccc(N/C=C3\C(=O)NC(=O)c4ccc(-c5ccoc5)cc43)cn2)CC1 [Example 249, (4Z)-6-(3-Furyl)-4-({[6-(4-methylpiperazin-1-yl)pyridin-3-′yl]amino}methylene)isoquinoline-1,3(2H,4H)-dione] | 2.4 µM | 200 to 201 °C | > 50 µM |  |  |  | 2 µM |  |  |  | 
COc1cc2c(cc1Br)/C(=C/Nc1ccc(CN3CCCCC3)cc1)C(=O)NC2=O [Example 252, 6-Bromo-7-methoxy-4-[(4-piperidin-1-ylmethyl-phenylamino)-methylene]-4H-isoquinoline-1,3-dione] | 21 µM | 264 to 267 °C |  | 33 µM |  | 14 µM | 15 µM |  |  |  | 
O=C1NC(=O)c2ccc(Br)cc2/C1=C/Nc1ccc(CN2CCSC2)cc1 [Example 281, (4Z)-6-Bromo-4-({[4-(1,3-thiazolidin-3-ylmethyl)phenyl]amino}methylene)isoquinoline-1,3(2H,4H)-dione] | 12 µM | 224 to 225 °C |  | 19 µM |  | 20 µM | 44.3 µM |  |  |  | 
COC[C@H]1CCCN1Cc1ccc(N/C=C2\C(=O)NC(=O)c3ccc(-c4ccc(OC(C)C)cc4)cc32)cc1 [Example 300, (4Z)-6-(4-Isopropoxyphenyl)-4-{[(4-{[(2R)-2-(methoxymethyl)pyrrolidin-1-yl]methyl}phenyl)amino]methylene}isoquinoline-1,3(2H,4H)-dione] | 26 µM | 200 to 201 °C |  | 8.7 µM |  | 3.1 µM | 17 µM |  |  |  | 
O=C1NC(=O)c2ccc(Br)cc2C1=CNCc1cc(=O)c(O)co1 [Example 313, 6-Bromo-4-{[(5-hydroxy-4-oxo-4H-pyran-2-ylmethyl)-amino]-methylene}-4H-isoquinoline-1,3-dione] | 41 µM | 293 to 297 °C (dec.) |  | 22 µM |  | 27 µM | 43 µM |  |  |  | 
C[C@@H]1CN(c2ccc(N/C=C3\C(=O)NC(=O)c4ccc(Br)cc43)cc2F)C[C@H](C)N1 [Example 318, (4Z)-6-Bromo-4-[({4-[(3R,5S)-3,5-dimethylpiperazin-1-yl]-3-fluorophenyl}amino)methylene]isoquinoline-1,3(2H,4H)-dione] | 1.5 µM | 168 to 169 °C |  | 2.5 µM |  | 1.3 µM | 1.9 µM |  |  |  | 
Cc1nn(-c2ccc(NC=C3C(=O)NC(=O)c4ccc(Br)cc43)cc2)c(C)c1Cl [Example 348, 6-Bromo-4-{[4-(4-chloro-3,5-dimethyl-pyrazol-1-yl)-phenylamino]-methylene}-4H-isoquinoline-1,3-dione] | 1.8 µM | 290 to 291 °C |  | 5.1 µM |  | 2.6 µM | 6.1 µM |  |  |  | 
O=C1NC(=O)c2ccc(-n3cccc3)cc2/C1=C/Nc1ccc(Br)cn1 [Example 444, (Z)-4-((5-Bromopyridin-2-ylamino)methylene)-6-(1H-pyrrol-1-yl)isoquinoline-1,3(2H,4H)-dione] |  | 317 to 318 °C (dec.) |  |  |  |  |  | 5 µM | 8.9 µM | 5.2 µM | 3.2 µM
CC(C)N1CCN(c2ccc(N/C=C3\C(=O)NC(=O)c4ccc(Br)cc43)nc2)CC1 [Example 486, (4Z)-6-Bromo-4-({[5-(4-isopropylpiperazin-1-yl)pyridin-2-yl]amino}methylene)isoquinoline-1,3(2H,4H)-dione] |  | 223 to 224 °C |  |  |  |  |  | 7.56 µM | 10 µM | 3.61 µM | 7.49 µM
CCCOc1ccc(CN/C=C2\C(=O)NC(=O)c3ccc(I)cc32)nc1Br [Example 493, (Z)-4-(((6-Bromo-5-propoxypyridin-2-yl)methylamino)methylene)-6-iodoisoquinoline-1,3(2H,4H)-dione] |  | 251 to 253 °C (dec.) |  |  |  |  |  | 9.4 µM | 10.2 µM | 10.9 µM | 4.7 µM
CCCOc1ccc(CN/C=C2\C(=O)NC(=O)c3ccc(I)cc32)nc1O [Example 510, 4-{[(6-Hydroxy-5-propoxy-pyridin-2-ylmethyl)-amino]-methylene}-6-iodo-4H-isoquinoline-1,3-dione] |  | 275 to 281 °C (dec.) |  |  |  |  |  | 0.42 µM | 1.4 µM | 0.16 µM | 0.67 µM
